{"source": "patent US20050026270A1", "about": "(University of Maryland, priority 1999, published 2005)", "key": {"[1]": {"settings": "120 h"}, "[2]": {"experiment": "Stability of subtilin: activity retained after storage or exposure to light"}}}
{"substance": "subtilin [stable subtilin]", "values": [{"measurement": "activity remaining after storage", "setting": "[1]", "result": "greater than 50%"}]}
{"substance": "subtilin", "values": [{"measurement": "loss of activity on exposure to light", "setting": "[2]; exposure to light", "result": "rapid loss of activity"}, {"measurement": "loss of activity on storage", "setting": "[2]; stored at 4° C. or 20° C.", "result": "loses activity rapidly"}]}
